In patent publication US20240116891A1, “MARALIXIBAT SOLID FORMS, INTERMEDIATES AND PROCESSES OF MAKING SAME” (MIRUM PHARMACEUTICALS, INC., priority 2022, published 2024):

Columns and labels:
Format in all cases: physicochemical
[1] = Polymorph screening (stability of solid forms); details: for Relative stability of solid form in polymorph screening: under the conditions tested in this study
Description: Form B was obtained from anti-solvent addition experiment with ACN/water from Form A. Form B was observed only as a wet cake, which convers back to Form A when air-dried. The XRPD, TGA/DSC, and PLM characterizations with the same parameters described above were performed. […] (FIG. 5). The weight loss started immediately with heat applied and it stopped 75° C.
(§1) The approximate solubility of compound of Formula I (starting material, prepared as described above) was measured at RT in 20 different solvents. Approximately 2 mg of starting material were added into a 3-mL glass vial. Solvents were then added step wise into the vials until the solids were dissolved or a total volume of 1 mL was reached (Note: this is not thermodynamic solubility estimation, vortex and sonication were applied in between each solvent to accelerate the dissolution). Results summarized in Table 3-1 were used to guide the solvent selection for the polymorph screening. Beginning with the starting material, polymorph screening experiments were set up using methods of Slurry at different temperatures, Slow Cooling, Liquid and Solid Vapor Diffusion, Slow Evaporation, Anti-Solvent Addition and Ionic Liquid. The methods utilized, and crystal forms identified are summarized in Table 3-2 (Type A and Form A are used interchangeably and Type B and Form B are used interchangeably).
As described above, polymorph screening experiments were set up using methods of Slurry at different temperatures, Slow Cooling, Liquid and Solid Vapor Diffusion, Slow Evaporation, Anti-Solvent Addition, and Ionic Liquid. Two types, Form A (anhydrate) and Form B (weak solvate) were obtained from the experiments.
Further investigation was performed for Form B to better understand the phase origin.
Other than Form B (i.e., Type B), no additional polymorph was observed during the rest of the screening. […]
The approximate solubility of compound of Formula II (starting material) was determined at RT in 20 different solvents. […]
The molecular structure was determined by single crystal X-ray diffraction.

[2] = Approximate solubility of starting material at RT in 20 solvents
Description: as §1
The approximate solubility of compound of Formula II (starting material) was determined at RT in 20 different solvents. Approximately 2 mg of the material were added into a 2-mL glass vial. Solvents were then added step into the vials until the solids were dissolved or a total volume of 1 mL was reached (Note: this is not a thermodynamic solubility estimation; vortex and sonication were applied in between each solvent addition to accelerate the dissolution). Results summarized in Table 5-1 were used to guide the solvent selection for the polymorph screening. Beginning with the starting material, polymorph screening experiments were set up using methods of Slurry at different temperatures, Slow Cooling, Liquid and Solid Vapor Diffusions, Slow Evaporation, Anti-Solvent Addition, and Ionic Liquid. No new polymorphs were observed during the screening. Type X and Form X are used interchangeably.

[3] = DVS test of compound of Formula I
[4] = Long-term stability study of compound of Formula I, 25° C./60% RH
Description: Long-term and accelerated stability studies were performed as below using the compound of Formula I prepared as described in Example 2.1.
Tests include appearance, purity by HPLC, assay by HPLC, chiral purity by HPLC, and water by KF titration. […]

[5] = Heat and light stressed stability of compound of Formula I in 95/5 (v/v) acetonitrile/isopropanol solution; details: for Purity, Chemical / Purity, Chiral: solution
Description: In addition, the stressed stability in 95/5 (v/v) acetonitrile /isopropanol solutions was also evaluated (e.g., during the SMB separation and successive work-up). Samples were stored under two different conditions over a period of 10 days: exposed to light at room temperature and in an oven at 60° C.

[6] = Wet cake drying study on compound of Formula II
Description: The wet cake drying study on compound of Formula II was carried out on a sample (98.67% purity of compound of Formula II) in an open dish held at 40° C. under vacuum. The sample was analyzed after one week (98.79% purity of compound of Formula II) and since the sample was stable, the study was extended another month. […] (98.74% purity of compound of Formula II).

[7] = Characterization of anhydrate Form II of compound of Formula III
Description: Anhydrate Form II of compound of Formula III was characterized by XRPD, TGA, DSC and HPLC. As shown in XRPD result (FIG. 11), the sample was crystalline and conformed to Form II. Its HPLC purity was determined to be 99.78 area %. […] (onset temperature) in DSC were observed. […] Form II is the stable form of compound of Formula III.

[8] = organic solvent or mixture, ACN
[9] = organic solvent or mixture, Acetone
[10] = organic solvent or mixture, Cyclohexane
[11] = organic solvent or mixture, DCM
[12] = organic solvent or mixture, DMF
[13] = organic solvent or mixture, DMSO
[14] = organic solvent or mixture, EtOAc
[15] = organic solvent or mixture, EtOH
[16] = organic solvent or mixture, IPA
[17] = organic solvent or mixture, IPAc
[18] = organic solvent or mixture, MIBK
[19] = organic solvent or mixture, MTBE
[20] = organic solvent or mixture, MeOH
[21] = organic solvent or mixture, MeTHF
[22] = organic solvent or mixture, NMP
[23] = organic solvent or mixture, Pentane
[24] = organic solvent or mixture, Toluene
[25] = organic solvent or mixture, n-Butyl Acetate
[26] = organic solvent or mixture, n-Heptane

CCCCC1(CCCC)CS(=O)(=O)c2ccc(N(C)C)cc2[C@@H](c2ccc(OC)cc2)[C@H]1O [Form B, (4R,5R)-3,3-dibutyl-7-(dimethylamino)-4-hydroxy-5-(4-methoxyphenyl)-2,3,4,5-tetrahydrobenzo[b]thiepine 1,1-dioxide]
Solid form after air-drying of the wet cake (XRPD) ([1]; air-dried overnight): converted back to Form A

CCCCC1(CCCC)CS(=O)(=O)c2ccc(N(C)C)cc2[C@@H](c2ccc(OC)cc2)[C@H]1O [Formula I, (4R,5R)-3,3-dibutyl-7-(dimethylamino)-4-hydroxy-5-(4-methoxyphenyl)-2,3,4,5-tetrahydrobenzo[b]thiepine 1,1-dioxide]
solubility [2, 8]: > 44 mg/mL
solubility [2, 9]: > 54 mg/mL
solubility [2, 10]: < 2 mg/mL
solubility [2, 11]: > 58 mg/mL
solubility [2, 12]: > 48 mg/mL
solubility [2, 13]: > 50 mg/mL
solubility [2, 14]: > 40 mg/mL
solubility [2, 15]: 27 to 54 mg/mL
solubility [2, 16]: 7.3 to 22 mg/mL
solubility [2, 17]: 24 to 48 mg/mL
solubility [2, 18]: > 50 mg/mL
solubility [2, 19]: 9.3 to 28 mg/mL
solubility [2, 20]: 29 to 58 mg/mL
solubility [2, 21]: > 56 mg/mL
solubility [2, 22]: > 46 mg/mL
solubility [2, 23]: < 2.7 mg/mL
solubility [2, 24]: > 54 mg/mL
solubility [2, 25]: > 56 mg/mL
solubility [2, 26]: < 2.8 mg/mL
solubility ([2]; water, H2O): < 2.3 mg/mL
Form transition before and after DVS test [3]: no form transition observed
Hygroscopicity by DVS [3]: Non-hygroscopic
Appearance (Color, morphology) ([4]; 0 months): Off-white
HPLC Assay ([4]; 0 months): 95.5% w/w
HPLC Purity ([4]; 0 months): 99.6% a/a
HPLC Purity - Chiral ([4]; 0 months): 100.0% a/a
Water by KF Titration ([4]; 0 months): <0.1% w/w
Appearance (Color, morphology) ([4]; 3 months): Off-white
HPLC Assay ([4]; 3 months): 96.3% w/w
HPLC Purity ([4]; 3 months): 99.9% a/a
HPLC Purity - Chiral ([4]; 3 months): 100.0% a/a
Water by KF Titration ([4]; 3 months): <0.1% w/w
Appearance (Color, morphology) ([4]; 6 months): Off-white
HPLC Assay ([4]; 6 months): 96.4% w/w
HPLC Purity ([4]; 6 months): 99.8% a/a
HPLC Purity - Chiral ([4]; 6 months): 100.0% a/a
Water by KF Titration ([4]; 6 months): <0.1% w/w
Appearance (Color, morphology) ([4]; 12 months): Off-white
HPLC Assay ([4]; 12 months): 96.5% w/w
HPLC Purity ([4]; 12 months): 99.8% a/a
HPLC Purity - Chiral ([4]; 12 months): 100.0% a/a
Water by KF Titration ([4]; 12 months): <0.1% w/w
Stability (chemical and chiral purity) for SMB operation and work-up ([5]; 95/5 (v/v) acetonitrile/isopropanol, 10 days, light at RT or 60° C.): adequate stability
Purity, Chemical ([5]; RT (light), Day 0): 99.4 % a/a
Purity, Chiral ([5]; RT (light), Day 0): 99.6 % a/a
Purity, Chemical ([5]; RT (light), Day 3): 99.4 % a/a
Purity, Chiral ([5]; RT (light), Day 3): 99.6 % a/a
Purity, Chemical ([5]; RT (light), Day 7): 99.4 % a/a
Purity, Chiral ([5]; RT (light), Day 7): 99.7 % a/a
Purity, Chemical ([5]; RT (light), Day 10): 99.4 % a/a
Purity, Chiral ([5]; RT (light), Day 10): 99.4 % a/a
Purity, Chemical ([5]; T = 60° C., Day 0): 99.3 % a/a
Purity, Chiral ([5]; T = 60° C., Day 0): 99.7 % a/a
Purity, Chemical ([5]; T = 60° C., Day 3): 98.7 % a/a
Purity, Chiral ([5]; T = 60° C., Day 3): 99.5 % a/a
Purity, Chemical ([5]; T = 60° C., Day 7): 98.5 % a/a
Purity, Chiral ([5]; T = 60° C., Day 7): 99.8 % a/a
Purity, Chemical ([5]; T = 60° C., Day 10): 98.5 % a/a
Purity, Chiral ([5]; T = 60° C., Day 10): 99.7 % a/a

CCCCC1(CCCC)CS(=O)(=O)c2ccc(N(C)C)cc2[C@@H](c2ccc(O)cc2)[C@H]1O [Formula II, (4R,5R)-3,3-dibutyl-7-(dimethylamino)-4-hydroxy-5-(4-hydroxyphenyl)-2,3,4,5-tetrahydrobenzo[b]thiepine 1,1-dioxide]
solubility [2, 8]: 2.9 to 9.7 mg/mL
solubility [2, 9]: 26 to 52 mg/mL
solubility [2, 10]: < 2 mg/mL
solubility [2, 11]: 8.7 to 26 mg/mL
solubility [2, 12]: > 40 mg/mL
solubility [2, 13]: > 44 mg/mL
solubility [2, 14]: 20 to 40 mg/mL
solubility [2, 15]: 2.7 to 9.3 mg/mL
solubility [2, 16]: 2.6 to 8.7 mg/mL
solubility [2, 17]: 7.7 to 23 mg/mL
solubility [2, 18]: 21 to 43 mg/mL
solubility [2, 19]: 2.4 to 8 mg/mL
solubility [2, 20]: 7.3 to 22 mg/mL
solubility [2, 21]: 21 to 42 mg/mL
solubility [2, 22]: > 44 mg/mL
solubility [2, 23]: < 2.7 mg/mL
solubility [2, 24]: < 2.8 mg/mL
solubility [2, 25]: 8.3 to 25 mg/mL
solubility [2, 26]: < 2 mg/mL
solubility ([2]; water, H2O): < 2 mg/mL
Purity of compound of Formula II ([6]; open dish, 40° C. under vacuum, after one week): 98.79%
Purity of compound of Formula II ([6]; open dish, 40° C. under vacuum, study extended another month): 98.74%
Hold time of the solid ([6]; under vacuum at 40° C.): at least a month
Purity of compound of Formula II ([6]; wet cake sample at start of study): 98.67%

CCCCC1(CCCC)CS(=O)(=O)c2ccc(N(C)C)cc2[C@@H](c2ccc(O)cc2)[C@H]1O [Form X, (4R,5R)-3,3-dibutyl-7-(dimethylamino)-4-hydroxy-5-(4-hydroxyphenyl)-2,3,4,5-tetrahydrobenzo[b]thiepine 1,1-dioxide]
Relative stability of solid form in polymorph screening [1]: most stable form

CCCCC1(CCCC)CS(=O)(=O)c2ccc(N(C)C)cc2[C@@H](c2ccc(OC)cc2)[C@H]1O [Form A, (4R,5R)-3,3-dibutyl-7-(dimethylamino)-4-hydroxy-5-(4-methoxyphenyl)-2,3,4,5-tetrahydrobenzo[b]thiepine 1,1-dioxide]
Relative stability of solid form in polymorph screening [1]: most stable form

CCCCC1(CCCC)CS(=O)(=O)c2ccc(N(C)C)cc2[C@@H](c2ccc(OCc3ccc(C[N+]45CCN(CC4)CC5)cc3)cc2)[C@H]1O.[Cl-] [Form II, 1-(4-((4-((4R,5R)-3,3-dibutyl-7-(dimethylamino)-4-hydroxy-1,1-dioxido-2,3,4,5-tetrahydrobenzo[b]thiepin-5-yl)phenoxy)methyl)benzyl)-1,4-diazabicyclo[2.2.2] octan-1-ium chloride]
Stability of solid form [7]: stable form
